Laboratory results as given in ChEMBL document CHEMBL4680309, “Discovery of a potent β-catenin destabilizer for overcoming the resistance of 5-fluorouracil in colorectal cancer” (Bioorg Med Chem, 2021).
Activity calls are given as the source filed them. The rule behind the calls is not given here.

Columns and labels:
HCT-8 [1] = assay: Cytotoxicity against human HCT-8 cells assessed as reduction in cell viability at 100 uM incubated for 72 hrs by SRB assay; assay type: functional, cell-based
HCT-116 [2] = assay: Cytotoxicity against human HCT-116 cells assessed as reduction in cell viability incubated for 72 hrs by SRB assay; settings: HCT-116, 72 h
HCT-116 [3] = assay: Cytotoxicity against human HCT-116 cells harboring p53 knock out gene assessed as reduction in cell viability incubated for 72 hrs by SRB assay; assay type: functional, cell-based; settings: HCT-116, 72 h
[4] = Resistance index, ratio of IC50 for cytotoxicity against human HCT-116 cells harboring p53 knock out gene to IC50 for cytotoxicity against human HCT-116 cells; assay type: functional
HCT-8 [5] = assay: Cytotoxicity against 5-FU resistant human HCT-8 cells assessed as reduction in cell viability incubated for 72 hrs by SRB assay; assay type: functional, cell-based; settings: HCT-8, 72 h
[6] = Resistance index, ratio of IC50 for cytotoxicity against 5-FU resistant human HCT-8 cells to IC50 for cytotoxicity against human HCT-8 cells; assay type: functional
HCT-8 [7] = assay: Cytotoxicity against human HCT-8 cells assessed as reduction in cell viability incubated for 72 hrs by SRB assay; settings: HCT-8, 72 h
HCT-8 [8] = assay: Inhibition of Wnt/beta-Catenin signaling in human HCT-8 cells assessed as reduction in c-myc expression incubated for 24 hrs by Western blot analysis; assay type: cell-based; settings: dose 20-100 µM
HCT-8 [9] = assay: Inhibition of Wnt/beta-Catenin signaling in 5-FU resistant human HCT-8 cells assessed as reduction in beta-catenin level incubated for 24 hrs by Western blot analysis; assay type: cell-based; settings: dose 20-100 µM
[10] = biological target: T1, Catenin beta-1 (Homo sapiens) (UniProt P35222); assay: Degradation of beta-catenin (unknown origin) transfected in human HCT-8 cells assessed as reduction in cyclin D1 mRNA expression at 50 uM incubated for 24 hrs by qRT-PCR analysis; assay type: cell-based
T1 sequence (whole entry): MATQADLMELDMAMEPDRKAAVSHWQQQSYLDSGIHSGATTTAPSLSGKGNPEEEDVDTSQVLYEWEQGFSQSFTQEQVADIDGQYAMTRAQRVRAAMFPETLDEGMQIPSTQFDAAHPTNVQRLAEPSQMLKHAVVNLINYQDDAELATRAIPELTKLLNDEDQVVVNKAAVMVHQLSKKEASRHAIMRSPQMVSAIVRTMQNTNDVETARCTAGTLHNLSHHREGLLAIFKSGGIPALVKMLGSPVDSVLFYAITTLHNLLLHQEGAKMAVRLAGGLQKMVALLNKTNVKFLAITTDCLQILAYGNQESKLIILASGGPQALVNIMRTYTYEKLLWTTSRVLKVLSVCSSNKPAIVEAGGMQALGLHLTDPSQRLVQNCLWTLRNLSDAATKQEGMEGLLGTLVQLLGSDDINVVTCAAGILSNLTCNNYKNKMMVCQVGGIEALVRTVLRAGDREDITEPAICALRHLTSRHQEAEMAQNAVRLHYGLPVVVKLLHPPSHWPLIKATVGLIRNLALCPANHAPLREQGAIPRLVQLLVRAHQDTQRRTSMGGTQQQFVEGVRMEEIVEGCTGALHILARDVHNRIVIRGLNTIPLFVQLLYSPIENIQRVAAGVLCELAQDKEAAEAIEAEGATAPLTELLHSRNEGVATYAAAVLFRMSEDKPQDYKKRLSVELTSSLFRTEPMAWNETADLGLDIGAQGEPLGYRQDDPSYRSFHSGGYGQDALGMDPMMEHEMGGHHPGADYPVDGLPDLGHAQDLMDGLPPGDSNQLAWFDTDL

[11] = Cytotoxicity against human RKOE6 cells assessed as reduction in cell viability incubated for 72 hrs by SRB assay; settings: RKOE6, 72 h
[12] = biological target: T1, Catenin beta-1 (Homo sapiens); assay: Degradation of beta-catenin (unknown origin) transfected in human HCT-8 cells assessed as reduction in cell viability at 50 uM incubated for 24 hrs by SRB assay; assay type: cell-based
HCT-8 [13] = assay: Inhibition of Wnt/beta-Catenin signaling in human HCT-8 cells assessed as reduction in beta-catenin level incubated for 24 hrs by Western blot analysis; assay type: cell-based; settings: dose 20-100 µM
SW480 = assay: Cytotoxicity against human SW480 cells assessed as reduction in cell viability incubated for 72 hrs by SRB assay; settings: SW480, 72 h
HCT-8 [14] = assay: Inhibition of Wnt/beta-Catenin signaling in human HCT-8 cells assessed as reduction in cyclin D1 expression incubated for 24 hrs by Western blot analysis; assay type: cell-based; settings: dose 20-100 µM
HT-29 = assay: Cytotoxicity against human HT-29 cells assessed as reduction in cell viability incubated for 72 hrs by SRB assay; settings: HT-29, 72 h
HCT-8 [15] = assay: Effect on beta-Catenin mRNA expression in 5-FU resistant human HCT-8 cells at 50 to 100 uM incubated for 24 hrs by qRT-PCR analysis; assay type: functional, cell-based; settings: dose 50-100 µM
[16] = biological target: T1, Catenin beta-1 (Homo sapiens); assay: Degradation of beta-catenin (unknown origin) transfected in human HCT-8 cells assessed as reduction in survivin mRNA expression at 50 uM incubated for 24 hrs by qRT-PCR analysis; assay type: cell-based
[17] = biological target: T1, Catenin beta-1 (Homo sapiens); assay: Degradation of beta-catenin (unknown origin) transfected in 5-FU resistant human HCT-8 cells assessed as reduction in cyclin D1 mRNA expression at 50 uM incubated for 24 hrs by qRT-PCR analysis; assay type: cell-based
LoVo = assay: Cytotoxicity against human LoVo cells assessed as reduction in cell viability incubated for 72 hrs by SRB assay
HCT-8 [18] = assay: Inhibition of Wnt/beta-Catenin signaling in 5-FU resistant human HCT-8 cells assessed as reduction in cyclin D1 expression incubated for 24 hrs by Western blot analysis; assay type: cell-based; settings: dose 20-100 µM
HCT-8 [19] = assay: Effect on beta-Catenin mRNA expression in human HCT-8 cells at 50 uM incubated for 24 hrs by qRT-PCR analysis; assay type: functional, cell-based
[20] = biological target: T1, Catenin beta-1 (Homo sapiens); assay: Degradation of beta-catenin (unknown origin) transfected in human HCT-8 cells assessed as reduction in c-myc mRNA expression at 50 uM incubated for 24 hrs by qRT-PCR analysis; assay type: cell-based
HCT-8 [21] = assay: Effect on beta-Catenin mRNA expression in human HCT-8 cells at 100 uM incubated for 24 hrs by qRT-PCR analysis; assay type: functional, cell-based
[22] = biological target: T1, Catenin beta-1 (Homo sapiens); assay: Degradation of beta-catenin (unknown origin) transfected in 5-FU resistant human HCT-8 cells assessed as reduction in survivin mRNA expression at 50 uM incubated for 24 hrs by qRT-PCR analysis; assay type: cell-based
HCT-8 [23] = assay: Inhibition of Wnt/beta-Catenin signaling in 5-FU resistant human HCT-8 cells assessed as reduction in c-myc expression incubated for 24 hrs by Western blot analysis; assay type: cell-based; settings: dose 20-100 µM
[24] = biological target: T1, Catenin beta-1 (Homo sapiens); assay: Degradation of beta-catenin (unknown origin) transfected in 5-FU resistant human HCT-8 cells assessed as reduction in c-myc mRNA expression at 50 uM incubated for 24 hrs by qRT-PCR analysis; assay type: cell-based
HCT-8 [25] = assay: Inhibition of Wnt/beta-Catenin signaling in human HCT-8 cells assessed as reduction in survivin expression incubated for 24 hrs by Western blot analysis; assay type: cell-based; settings: dose 20-100 µM
[26] = biological target: T1, Catenin beta-1 (Homo sapiens); assay: Degradation of beta-Catenin in human HCT-8 cells assessed as reduction in Wnt-3a-induced beta-Catenin level at 50 to 100 uM incubated for 24 hrs by Western blot analysis; assay type: cell-based; settings: dose 50-100 µM
[27] = biological target: T1, Catenin beta-1 (Homo sapiens); assay: Degradation of beta-catenin (unknown origin) transfected in 5-FU resistant human HCT-8 cells assessed as reduction in cell viability at 50 uM incubated for 24 hrs by SRB assay; assay type: cell-based
HCT-8 [28] = assay: Inhibition of Wnt/beta-Catenin signaling in 5-FU resistant human HCT-8 cells assessed as reduction in survivin expression incubated for 24 hrs by Western blot analysis; assay type: cell-based; settings: dose 20-100 µM

C=C1C(=O)O[C@@H]2CCCn3c(C=O)ccc3[C@@H]12
inhibition (HCT-8 [1]): inactive

O=c1[nH]cc(F)c(=O)[nH]1 [FLUOROURACIL]
IC50 (HCT-116 [2]): 1.7 µM
IC50 (HCT-116 [3]): 4.3 µM
Ratio IC50 [4]: 2.5
IC50 (HCT-8 [5]): 47 µM
Ratio IC50 [6]: 21
IC50 (HCT-8 [7]): 2.2 µM

CC[C@H]1C(=O)O[C@@H]2CCCn3cccc3[C@H]21
inhibition (HCT-8 [1]): inactive

C=C1C(=O)O[C@@H]2CCCn3cccc3[C@@H]12
inhibition (HCT-8 [8]): Dose-dependent effect
inhibition (HCT-8 [9]): Dose-dependent effect
Activity [10]: inactive
IC50 [11]: 7.93 µM
IC50 (HCT-116 [2]): 13 µM
Activity [12]: inactive
inhibition (HCT-8 [13]): Dose-dependent effect
IC50 (SW480): 16.8 µM
inhibition (HCT-8 [14]): Dose-dependent effect
IC50 (HCT-116 [3]): 14 µM
IC50 (HT-29): 8.52 µM
Activity (HCT-8 [15]): inactive
Activity [16]: inactive
Activity [17]: inactive
Ratio IC50 [4]: 1
IC50 (LoVo): 10.2 µM
inhibition (HCT-8 [18]): Dose-dependent effect
IC50 (HCT-8 [5]): 11 µM
Activity (HCT-8 [19]): Active
Activity [20]: inactive
Ratio IC50 [6]: 1
Activity (HCT-8 [21]): inactive
IC50 (HCT-8 [7]): 11 µM
Activity [22]: inactive
inhibition (HCT-8 [23]): Dose-dependent effect
Activity [24]: inactive
inhibition (HCT-8 [25]): Dose-dependent effect
inhibition (HCT-8 [1]): inactive
Activity [26]: Active
Activity [27]: inactive
inhibition (HCT-8 [28]): Dose-dependent effect

CCCCc1ccc2n1CCC[C@H]1OC(=O)[C@@H](C)[C@H]21
inhibition (HCT-8 [1]): inactive

CC[C@@H]1C(=O)O[C@@H]2CCCn3cccc3[C@@H]12
inhibition (HCT-8 [1]): inactive
